Experimental data: paper PMC10804612, “In vivo validation of psilacetin as a prodrug yielding modestly lower peripheral psilocin exposure than psilocybin” (Frontiers in Psychiatry, 2024)

Key:
head twitch responses = test system: head twitch responses; design: method as in PMID 33860183; settings: equimolar basis; cited from earlier work
5-HT2A receptor = test system: 5-HT2A receptor; design: method as in PMID 36407948, PMID 33860183; settings: in vitro; cited from earlier work
[1] = cited from earlier work
[2] = Plasma psilocin by LC-MS/MS after intraperitoneal psilocybin or psilacetin fumarate

SMILES	head twitch response potency (head twitch responses)	receptor potency, fold lower than that of psilocin (5-HT2A receptor)	plasma concentrations in human pharmacokinetic studies [1]	k el ([2]; both, C57Bl6/J, mouse, plasma, ip)	half-life ([2]; both, C57Bl6/J, mouse, plasma, ip, psilocin half-life (T1/2), plasma psilocin from psilocybin or psilacetin, mice)	plasma psilocin concentration by 4 h after administration ([2]; lower limit of quantitation 0.1 ng/mL, approximately 6 half-lives)	psilocin half-life ([2]; plasma psilocin, mice)	terminal elimination rate of psilocin, range ([2]; range across tested conditions)
CC(=O)Oc1cccc2[nH]cc(CCN(C)C)c12 [psilacetin, 4-acetoxy-N,N-dimethyltryptamine]	1.12 µmol/kg	10- to 20 fold	–	–	–	–	–	–
CN(C)CCc1c[nH]c2cccc(OP(=O)(O)O)c12 [psilocybin]	–	–	5 to 50 ng/mL	–	–	–	–	–
CN(C)CCc1c[nH]c2cccc(O)c12 [psilocin]	0.81 µmol/kg	–	–	0.000433 s⁻¹	~30 min	near or below the lower limit of quantitation	approximately one-half	0.020–0.038 min^1
